According to the supplement of paper PMC10307832:

Legend:
Experiment in all cases: relative viability (nuclei count vs DMSO), 5 days (fraction); higher = more cells survive
[1] = compound: NCC(=O)Nc1ccc(-n2nc(C(F)(F)F)cc2-c2ccc3c(ccc4ccccc43)c2)cc1 + Cc1nc(NC(=O)N2CCC[C@H]2C(N)=O)sc1-c1ccnc(C(C)(C)C(F)(F)F)c1 [Alpelisib] (partner 2 µM)
Summary of the method: (§1)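 Dosing by pin tool came one day after lung cancer cell lines were seeded in 1536-well plates, using either one drug or a fixed anchor-drug dose plus five library-drug doses (not always all listed) in √10 steps. After 5 days, nuclei were counted on 4× images. Relative viability is treated-well nuclei count divided by vehicle-well nuclei count, and values are medians of duplicate plates.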

[2] = compound: NCC(=O)Nc1ccc(-n2nc(C(F)(F)F)cc2-c2ccc3c(ccc4ccccc43)c2)cc1 + Cc1cc(Nc2cc(N3CCN(C)CC3)nc(Sc3ccc(NC(=O)C4CC4)cc3)n2)n[nH]1 [Tozasertib] (partner 0.1 µM)
Summary of the method: as §1

[3] = compound: NCC(=O)Nc1ccc(-n2nc(C(F)(F)F)cc2-c2ccc3c(ccc4ccccc43)c2)cc1 + COc1cccc2cc(-c3nc([C@H]4CC[C@H](C(=O)O)CC4)n4ncnc(N)c34)[nH]c12 [OSI-027] (partner 0.5 µM)
Summary of the method: as §1

[4] = compound: C1CSC2=C(C(=O)N1)SC3=C2C=C(C=C3)O [kb NB 142-70] + CCNC(=O)c1noc(-c2cc(C(C)C)c(O)cc2O)c1-c1ccc(CN2CCOCC2)cc1 [Luminespib] (partner 0.01 µM)
Summary of the method: as §1

Row | Cell Line | relative viability ([1]; first compound 0.02 µM) | relative viability ([1]; first compound 0.06325 µM) | relative viability ([1]; first compound 0.2 µM) | relative viability ([1]; first compound 0.6325 µM) | relative viability ([1]; first compound 2 µM) | relative viability ([2]; first compound 0.02 µM) | relative viability ([2]; first compound 0.06325 µM) | relative viability ([2]; first compound 0.2 µM) | relative viability ([2]; first compound 0.6325 µM) | relative viability ([2]; first compound 2 µM) | relative viability ([3]; first compound 0.02 µM) | relative viability ([3]; first compound 0.06325 µM) | relative viability ([3]; first compound 0.2 µM) | relative viability ([3]; first compound 0.6325 µM) | relative viability ([3]; first compound 2 µM) | relative viability ([4]; first compound 0.1 µM) | relative viability ([4]; first compound 1 µM) | relative viability ([4]; first compound 3.162 µM)
1 | 201T | 1.08 | 1.05 | 1.04 | 1 | 1.05 | 0.943 | 0.958 | 1.04 | 0.924 | 0.928 | 0.806 | 0.769 | 0.724 | 0.649 | 0.606 | 1.04 | 1.03 | 1.08
2 | A549 | 0.714 | 0.84 | 0.898 | 0.747 | 0.657 |  |  |  |  |  |  |  |  |  |  |  |  | 
3 | A-427 | 1.05 | 1.09 | 1.14 | 1.14 | 1.05 |  | 0.213 | 0.191 | 0.208 | 0.205 |  | 0.454 | 0.438 | 0.496 | 0.457 | 0.845 | 1.12 | 0.584
4 | ABC-1 | 0.955 | 0.88 |  | 1.06 | 1.14 | 0.183 | 0.199 |  | 0.134 | 0.187 | 0.558 | 0.409 |  | 0.471 | 0.542 | 0.536 | 0.487 | 0.336
5 | BEN | 1.04 | 1.06 | 1.1 | 1.05 | 1.06 | 0.422 | 0.499 | 0.461 | 0.464 | 0.572 | 0.281 | 0.32 | 0.296 | 0.326 | 0.297 | 0.412 | 1.13 | 0.281
6 | CAL-12T | 1.2 | 1.27 | 1.34 | 1.03 | 1.03 | 0.304 | 0.368 | 0.344 | 0.334 | 0.277 | 0.619 | 0.651 | 0.644 | 0.604 | 0.621 | 0.56 | 0.611 | 0.25
7 | COR-L23 | 0.895 | 0.822 | 0.898 | 0.722 | 0.745 | 0.208 | 0.213 | 0.195 | 0.21 | 0.136 | 0.765 | 0.894 | 0.836 | 0.693 | 0.755 | 0.665 | 0.524 | 0.159
8 | COR-L 105 | 0.911 | 1.12 | 1.26 | 0.896 | 0.969 | 0.361 | 0.313 | 0.303 | 0.295 | 0.336 | 0.593 | 0.626 | 0.623 | 0.776 | 0.6 | 0.603 | 0.634 | 0.712
9 | Calu-6 | 1.05 | 1.07 | 1.15 | 0.943 | 0.913 |  |  |  |  |  |  |  |  |  |  |  |  | 
10 | ChaGo-K-1 |  |  |  |  |  | 0.21 | 0.223 | 0.241 | 0.251 | 0.231 | 0.475 | 0.661 | 0.468 | 0.592 | 0.548 | 0.664 | 0.638 | 0.448
11 | EBC-1 | 0.785 | 0.785 | 0.962 | 0.835 | 0.834 |  |  |  |  |  |  |  |  |  |  |  |  | 
12 | HCC-78 | 0.361 | 0.422 | 0.376 | 0.306 | 0.397 | 0.408 | 0.415 | 0.501 | 0.403 | 0.411 | 0.402 | 0.375 | 0.329 | 0.347 | 0.41 |  |  | 
13 | HCC-366 | 0.32 | 0.432 | 0.489 | 0.435 | 0.322 | 0.42 | 0.18 | 0.118 | 0.15 | 0.0801 | 0.829 | 1.08 | 1.09 | 0.848 | 0.816 |  |  | 
14 | IA-LM | 0.776 | 0.715 | 0.937 | 0.784 | 0.782 |  |  |  |  |  |  |  |  |  |  |  |  | 
15 | NCI-H522 |  |  |  |  |  |  | 0.589 | 0.537 | 0.505 | 0.516 |  | 0.785 | 0.697 | 0.699 | 0.713 | 1.18 | 1.03 | 0.974
16 | NCI-H1299 | 1.05 | 1.11 | 1.09 | 1.08 | 1.03 |  |  |  |  |  |  |  |  |  |  |  |  | 
17 | NCI-H1563 | 0.969 | 0.837 | 0.962 | 0.928 | 1.05 |  |  |  |  |  | 0.785 | 0.786 | 0.761 | 0.771 | 0.719 | 0.597 | 0.498 | 0.538
18 | NCI-H1623 |  |  |  |  |  | 0.407 | 0.429 | 0.464 | 0.396 | 0.488 | 0.439 | 0.475 | 0.395 | 0.494 | 0.432 | 0.427 | 0.476 | 0.594
19 | NCI-H1648 |  |  |  |  |  | 0.362 | 0.532 | 0.502 | 0.503 | 0.399 | 0.248 | 0.262 | 0.257 | 0.227 | 0.273 |  |  | 
20 | NCI-H1650 |  |  |  |  |  | 0.389 | 0.438 |  | 0.453 | 0.347 | 0.7 | 0.806 |  | 0.73 | 0.634 | 0.204 | 0.19 | 0.18
21 | NCI-H1703 | 0.377 | 0.306 | 0.343 | 0.353 | 0.385 |  |  |  |  |  |  |  |  |  |  |  |  | 
22 | NCI-H1792 | 0.67 | 0.859 | 0.77 | 0.751 | 0.736 |  |  |  |  |  | 0.657 |  | 0.824 | 0.722 | 0.803 | 0.429 | 0.582 | 0.553
23 | NCI-H2342 |  |  |  |  |  | 0.652 | 0.676 | 0.45 | 0.448 | 0.492 | 0.666 | 0.726 | 0.635 | 0.539 | 0.648 | 0.625 | 0.761 | 0.719
24 | SW 900 |  |  |  |  |  |  | 0.509 | 0.594 | 0.533 | 0.511 |  | 0.54 | 0.627 | 0.648 | 0.507 | 0.187 | 0.181 | 0.177
